Data published in paper PMC11343376, “In vivo pharmacokinetics of ginsenoside compound K mediated by gut microbiota” (PLOS ONE, 2024).
Where two headings read alike, the source gives them in different places. One block for each compound: values may come before it.

Tests used:
[1] = Pharmacokinetics of GCK in SPF and pseudo-GF rats after single oral administration (LC-MS/MS of plasma); assay type: in vivo, Sprague-Dawley (SD) rats; details: for AUC(0-inf) / Tmax / half-life / AUC(0-t) / CL/F / MRT last / Vd/F / Cmax: Sprague-Dawley, rat, plasma, po, 22.5 mg/kg, GCK 22.5 mg/kg single oral dose; for AUC(0-t): read-out: AUC (0–11); for CL/F: read-out: CLz/F (converted); for MRT last: read-out: MRT(0–11); for Vd/F: read-out: Vz/F; for Cmax: rat plasma, n = 7, mean ± SD
Experimental: SD rats were randomly divided into two groups: normal control group (SPF group, n = 7) and pseudo-GF group (n = 7). To deplete the gut microbiota, a solution of ampicillin (50 mg/kg), vancomycin (25 mg/kg), neomycin sulfate (50 mg/kg), and metronidazole (50 mg/kg) were orally administered. Fresh antibiotic concoction with fed ampicillin in water (0.25 g/L) were prepared every day for a week. The feces were collected three days after withdrawal, and then the gut bacterial DNA was extracted with a stool DNA kit (Omega, D4015-01) and measured by Nonodrop 3000 spectrophotometer (Shimadzu, Japan).
The mass spectrometer analysis was performed on QTRAP 6500^+ low mass spectrometers. The Phenomenex LUNA C18 (2) Reversed Phase (Phenomenex, 150 × 2.0 mm, i.d., 5 μm) was used for the chromatographic separation with a mobile phase of acetonitrile (A) and the aqueous phase of 2 mM ammonium acetate (B) at a flow rate of 0.3 mL/min. The gradient elution procedure was set at 0−2 min: 20%A, 2−3 min: 20−65%A, 3−4 min: 65−75%A, 4−5 min: 75−90%A, 5−6 min: 90−100%A, and the re-equilibration time was set for 5 mins with 20%A after gradient elution. The tailing factors under the selected chromatographic conditions were calculated as 0.993 and 0.996 for GCK and PPD, respectively, while the theoretical plates were measured as 1.13 × 10^4. The injection volume was 10 μL with the temperature of column at 40°C. The mass spectrometer parameters were optimized as follow, Curtain Gas (CUR), 35; collision gas, 9;, ionspray voltage,-4500 V; temperature, 450°C; curtain gas, 35 psi; ion source gas 1, 50 psi; ion source gas 2, 55 psi. Both GCK and PPD were analyzed in multiple reaction monitoring (MRM) mode, shown as Fig 1.
After fasted for 12 h, all animals were once orally administrated with a medium dose of GCK (22.5 mg/kg) in 0.9% normal saline. Blood samples were collected from the tail vein at 0 h, 0.5 h, 1 h, 1.5 h, 2.5 h, 3 h, 3.5 h, 4 h, 5 h, 6 h, 7 h, 9.5 h, and 11 h after oral administration. All blood samples were immediately centrifuged at 4000 rpm for 20 min at 4°C. Approximate 100 μL of supernatant was collected and stored at -80°C for analysis. Non-compartmental model analysis was operated on DAS 2.0 software of the Chinese Pharmacological Society, and pharmacokinetic parameters were calculated accordingly.
The blood samples (50 μL) were mixed with 150 μL of digoxin solution (Internal standard (IS), 3.33 ng/mL), subsequently vortex-mixed and centrifuged at 1.4 × 10^4 rpm (4°C) to remove the precipitated proteins for 10 min, respectively. Finally, 100 μL of supernatant was subjected to LC-MS/ MS analysis.
Pharmacokinetics parameters including AUC, terminal elimination half-life (T1/2), mean retention time (MRT), apparent distribution volume (Vz/ F), and clearance rate (CL) were calculated using non-compartmental model analysis (DAS 2.0 software, Chinese Pharmacological Association, China). Other parameters, such as maximum plasma concentration (Cmax) and time to maximum plasma concentration (Tmax), were obtained directly from the plasma concentration-time diagram. All data were expressed as mean ± SD. Significant differences were marked by the symbols ** p < 0.01, *** p < 0.001, and **** p < 0.0001.

[2] = Freeze/thaw and long-term stability of QC samples in rat plasma; assay type: physicochemical; details: n = 6; for Freeze/thaw stability Accuracy: frozen –80°C / thawed 25°C three cycles; for long-term stability Accuracy: –80°C for thirty days
Experimental: The LQC, MQC, and HQC samples were stored at –80°C for thirty days. The employed samples were tested to assess long-term stability. Six replicates of all QC samples were frozen at –80°C and thawed at 25°C for three cycles, which were then determined to assess the freeze/thaw cycle stability. The variabilities of precision and accuracy should be within15%.

[3] = parameters: method as in PMID 28955238; details: human plasma, single dose of oral GCK; ref [14]; cited from earlier work
[4] = high QC (GCK 552, PPD 456 ng/mL)
[5] = low QC (GCK 10.8, PPD 8.91 ng/mL)
[6] = middle QC (GCK 86.3, PPD 71.3 ng/mL)
[7] = pseudo-GF rats compared with SPF rats

Structure (SMILES): CC(C)=CCC[C@](C)(O)[C@H]1CC[C@]2(C)[C@@H]1[C@H](O)C[C@@H]1[C@@]3(C)CC[C@H](O)C(C)(C)[C@@H]3CC[C@]12C [PPD, protopanaxadiol]
Detection of the metabolite PPD in rat plasma ([1]; after single oral GCK 22.5 mg/kg, both SPF and pseudo-GF groups, LLOQ 4.45 ng/mL): not detected
Freeze/thaw stability Accuracy [2, 4]: 89.65%
Freeze/thaw stability Accuracy [2, 5]: 92.44%
Freeze/thaw stability Accuracy [2, 6]: 93.50%
long-term stability Accuracy [2, 4]: 101.93%
long-term stability Accuracy [2, 5]: 96.17%
long-term stability Accuracy [2, 6]: 97.83%
Cmax of PPD [3]: ~0.0042 µg/mL
T1/2 of PPD [3]: more than 19 hours
Tmax of PPD [3]: ~25 h

AUC(0-inf) ([1]; SPF group): 0.679 ± 0.284 µg·h/mL
Tmax ([1]; SPF group): 3.36 ± 1.25 h
half-life ([1]; SPF group): 2.2 ± 1.69 h
AUC(0-t) ([1]; SPF group): 0.586 ± 0.161 µg·h/mL
CL/F ([1]; SPF group): 37.9 L/h/kg
MRT last ([1]; SPF group): 4.16 ± 1.11 h
Vd/F ([1]; SPF group): 96.5 ± 44.9 L/kg
Cmax ([1]; SPF group): 0.162 ± 0.0469 µg/mL
AUC(0-inf) ([1]; pseudo-GF group): 2.3 ± 1.63 µg·h/mL
Tmax ([1]; pseudo-GF group): 5.86 ± 1.35 h
half-life ([1]; pseudo-GF group): 3.93 ± 1.65 h
AUC(0-t) ([1]; pseudo-GF group): 1.34 ± 0.402 µg·h/mL
CL/F ([1]; pseudo-GF group): 13.6 L/h/kg
MRT last ([1]; pseudo-GF group): 6.05 ± 0.42 h
Vd/F ([1]; pseudo-GF group): 63.2 ± 15.4 L/kg
Cmax ([1]; pseudo-GF group): 0.259 ± 0.07 µg/mL
AUC increased ([1]; pseudo-GF group compared with SPF group): approximately twice
AUC 0–11 increased by [1, 7]: 1.3 times
Cmax times higher than that of SPF rats [1, 7]: 1.6 times
CLz/F decreased by ([1]; pseudo-GF rats compared with SPF rats, P <0.01): 0.6 times
Freeze/thaw stability Accuracy [2, 4]: 104.11%
Freeze/thaw stability Accuracy [2, 5]: 102.76%
Freeze/thaw stability Accuracy [2, 6]: 106.47%
long-term stability Accuracy [2, 4]: 103.91%
long-term stability Accuracy [2, 5]: 95.56%
long-term stability Accuracy [2, 6]: 103.32%
Structure (SMILES): CC(C)=CCCC(C)(OC1OC(CO)C(O)C(O)C1O)C1CCC2(C)C1C(O)CC1C3(C)CCC(O)C(C)(C)C3CCC12C (stereo not drawn) [GCK, Ginsenoside Compound K]
